Assay [1] addresses Tyrosine-protein phosphatase YopH (Yersinia enterocolitica) (UniProt P15273). Briefly: Inhibitory activity against Yersinia Protein-tyrosine phosphatase YopH.
Assay [2] has the same target. The description is as above. The source holds these as a separate data set.

Chain of Tyrosine-protein phosphatase YopH (Yersinia enterocolitica) (P15273 whole entry, looked up): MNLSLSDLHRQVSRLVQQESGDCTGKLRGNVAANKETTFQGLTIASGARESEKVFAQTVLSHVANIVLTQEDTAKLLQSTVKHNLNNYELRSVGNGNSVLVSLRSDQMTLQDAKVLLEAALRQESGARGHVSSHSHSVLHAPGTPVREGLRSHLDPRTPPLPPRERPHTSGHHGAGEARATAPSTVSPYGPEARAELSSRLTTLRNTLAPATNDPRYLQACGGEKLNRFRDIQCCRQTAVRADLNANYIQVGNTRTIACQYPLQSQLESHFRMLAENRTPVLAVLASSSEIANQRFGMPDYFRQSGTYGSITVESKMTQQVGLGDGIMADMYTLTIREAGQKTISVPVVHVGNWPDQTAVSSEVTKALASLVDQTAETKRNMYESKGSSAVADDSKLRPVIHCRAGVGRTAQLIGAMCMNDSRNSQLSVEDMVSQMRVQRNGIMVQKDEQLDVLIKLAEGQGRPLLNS

For the compound `O=C(O)[C@H](O)c1ccccc1`, the IC50 in assay [1] turned out to be 5500 µM.

The compound `O=C(O)C(=O)c1cccs1` showed a concentration for half-maximal inhibition (IC50) in assay [1] of 950 µM.

For `O=C(O)C(=O)c1ccco1`, in assay [2], the Ki amounted to 79 µM.

In turn, `O=C(O)C(=O)c1ccccc1C(=O)O` displayed an IC50 in assay [1] of 1500 µM.

In assay [1], `COc1ccc(C(=O)C(=O)O)cc1OC` came in with an IC50 of 1700 µM.

Consider `O=C(O)C(O)c1ccc2ccccc2c1` (stereo not drawn), for which the IC50 in assay [1] is 3300 µM.

Consider `COc1ccc(C(=O)C(=O)O)cc1`, for which, in assay [1], half-maximal inhibition (IC50) was put at 150 µM.

In assay [1], `O=C(O)C(=O)c1c[nH]c2ccccc12` gave a half-inhibitory concentration (IC50) of 390 µM.

Turning to `O=C(O)C(O)c1ccco1` (stereo not drawn), the IC50 in assay [1] stood at 27 µM.

For `COc1ccc(C(O)C(=O)O)cc1` (stereo not drawn), half-maximal inhibition in assay [1] (IC50) required 5700 µM.

As for `COC(=O)c1ccc(C(=O)C(=O)O)cc1`, the IC50 in assay [1] came to 2300 µM.

Consider `O=C(O)[C@@H](O)c1ccccc1`, for which the IC50 in assay [1] came out at 4900 µM.

With `O=C(O)C(=O)c1c(F)c(F)c(F)c(F)c1F`, the half-inhibitory concentration (IC50) in assay [1] amounted to 790 µM.

Turning to `O=P(O)(O)C(F)(F)c1ccc2ccccc2c1`, in assay [2], the Ki was 179 µM.

In turn, `O=C(O)C(=O)c1ccc([N+](=O)[O-])cc1` displayed an IC50 in assay [1] of 2700 µM.

In turn, `O=C(O)C(=O)c1ccc2ccccc2c1` registered an IC50 in assay [1] of 190 µM.

In the case of `O=C(O)Cc1ccc2ccccc2c1`, the IC50 in assay [1] was 3500 µM.

Turning to `O=C(O)C(=O)c1ccccc1` [BENZOYL FORMIC ACID], in assay [1], inhibition was half-maximal at 2700 µM (IC50).

The values are drawn from ChEMBL document CHEMBL1133876, “alpha-Ketocarboxylic acid-based inhibitors of protein tyrosine phosphatases” (Bioorg Med Chem Lett, 2001).
